In patent US20260285846A1, “REV-ERB AGONISTS FOR TH17-MEDIATED INFLAMMATORY DISORDERS” (UNIVERSITY OF FLORID RESEARCH FOUNDATION, iNCORPORATED, priority 2021, published 2026) one finds EC50 data, which are given here for 29 compounds.

Some results are limits rather than exact numbers.

The target in this test is REV-ERBα LBD (Homo sapiens, UniProt P20393, DEL324-422). Put plainly: biochemical. The following applies: FRET assay; 6xHistag-REV-ERBα LBD with FITC-labeled SMRT corepressor peptide; read-out: REVERBα (Agonism of REV-ERBα, EC50). On the procedure: TR-FRET corepressor interaction assay. The time-resolved fluorescence resonance energy transfer (TR-FRET) assay was performed in black low-volume 384-well plates (Greiner). Each well contained 4 nM 6×Histag-REV-ERBα LBD (human; residues 281-614 A324-422) or 6×Histag-REV-ERBα LBD (human; residues 381-579) protein expressed in and purified from Escherichia coli using nickel affinity and size exclusion chromatography; 1 nM LanthaScreen Elite Tb-anti-HIS Antibody (Thermo Fisher Scientific); and 400 nM FITC-labeled peptide derived from the SMRT corepressor ([…]) containing a N-terminal FITC label with a six-carbon linker (Ahx) and an amidated C-terminus for stability (synthesized by LifeTein) in TR-FRET buffer (20 mM potassium phosphate, pH 7.4, 50 mM potassium chloride, 1 mM dithiothreitol, and 0.005% Tween-20). Ligand stocks were prepared via serial dilution in DMSO, added to wells in triplicate, and plates were incubated at 4° C. for 2 h and read using a BioTek Synergy Neo multimode plate reader. The Tb donor was excited at 340 nm; its fluorescence emission was monitored at 495 nm, and the acceptor FITC emission was measured at 520 nm; and the TR-FRET ratio was calculated as the signal at 520 nm divided by the signal at 495 nm. Data were plotted using GraphPad Prism as TR-FRET ratio vs. ligand concentration and fit to sigmoidal dose response curve equation.
Chain of REV-ERBα LBD (P20393 with tags, fused parts or gaps DEL324-422): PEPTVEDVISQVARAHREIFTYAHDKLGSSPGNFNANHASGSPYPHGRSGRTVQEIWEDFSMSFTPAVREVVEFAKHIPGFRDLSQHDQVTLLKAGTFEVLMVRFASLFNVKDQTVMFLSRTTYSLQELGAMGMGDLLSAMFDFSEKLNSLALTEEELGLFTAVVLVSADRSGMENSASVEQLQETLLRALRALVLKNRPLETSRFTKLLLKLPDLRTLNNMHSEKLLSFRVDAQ
Chain of REV-ERBα LBD (Q9Y618 2335-2356 partner limits assumed): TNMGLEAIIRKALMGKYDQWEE
Exemplary compounds of the present disclosure were assayed as described above to assess agonism of REV-ERBα. Results of the FRET assay are shown in Table 2 below (A: EC50<100 nM; B: EC50 100 nM-1000 nM; C: EC50>1000 nM; NT: not tested).
In general, EC50 refers to the concentration at which the effect is half-maximal. Take `CC(C)(C)Cn1cc([C@H](NS(=O)(=O)C2CC2)C(F)F)c2ccc(-c3ncc(F)cc3C(F)(F)F)cc21` [Compound 53, (S)—N-(2,2-difluoro-1-(6-(5-fluoro-3-(trifluoromethyl)pyridin-2-yl)-1-neopentyl-1H-indol-3-yl)ethyl)cyclopropanesulfonamide]: the concentration giving a half-maximal response (EC50) was under 100 nM.

With `CN(C)S(=O)(=O)N[C@@H](c1cn(CC(C)(C)C)c2cc(-c3ccccc3C(F)(F)F)c(F)cc12)C(F)F` [Compound 54], the half-maximal effective concentration (EC50) is under 100 nM.

For `CC(C)(C)Cn1cc([C@H](NS(=O)(=O)C2CC2)C(F)F)c2cc(F)c(-c3c(C#N)ccnc3C(F)(F)F)cc21` [Compound 55, N-((1S)-1-(6-(4-cyano-2-(trifluoromethyl)pyridin-3-yl)-5-fluoro-1-neopentyl-1H-indol-3-yl)-2,2-difluoroethyl)cyclopropanesulfonamide], the EC50 was under 100 nM.

In the case of `CC(C)(C)Cn1cc([C@H](NS(=O)(=O)C2CC2)C(F)F)c2cc(F)c(-c3ncc(F)cc3C(F)(F)F)cc21` [Compound 56, (S)—N-(2,2-difluoro-1-(5-fluoro-6-(5-fluoro-3-(trifluoromethyl)pyridin-2-yl)-1-neopentyl-1H-indol-3-yl)ethyl)cyclopropanesulfonamide], the EC50 was under 100 nM.

In the case of `CC(C)(C)Cn1cc([C@H](NS(=O)(=O)C2CC2)C(F)F)c2cc(F)c(-c3nccnc3C(F)(F)F)cc21` [Compound 57, (S)—N-(2,2-difluoro-1-(5-fluoro-1-neopentyl-6-(3-(trifluoromethyl)pyrazin-2-yl)-1H-indol-3-yl)ethyl)cyclopropanesulfonamide], the concentration giving a half-maximal response (EC50) was under 100 nM.

Turning to `CC(NS(=O)(=O)C1CC1)c1cn(CC(C)(C)C)c2cc(-c3ncccc3Cl)c(F)cc12` (centres unmarked) [Compound 58, N-[1-[6-(3-chloro-2-pyridyl)-1-(2,2-dimethylpropyl)-5-fluoro-indol-3-yl]ethyl]cyclopropanesulfonamide], the half-maximal effective concentration (EC50) is under 100 nM.

For `CC(NS(=O)(=O)C1CC1)c1cn(CC(C)(C)C)c2cc(-c3ncccc3F)c(F)cc12` (centres unmarked) [Compound 59, N-[1-[1-(2,2-dimethylpropyl)-5-fluoro-6-(3-fluoro-2-pyridyl)indol-3-yl]ethyl]cyclopropanesulfonamide], the EC50 is under 100 nM.

As to `CC(NS(=O)(=O)C1CC1)c1cn(CC(C)(C)C)c2cc(-c3ncccc3C3CC3)c(F)cc12` (centres unmarked) [Compound 60, N-(1-(6-(3-cyclopropylpyridin-2-yl)-5-fluoro-1-neopentyl-1H-indol-3-yl)ethyl)cyclopropanesulfonamide], the EC50 is under 100 nM.

`CC(NS(=O)(=O)C1CC1)c1cn(CC(C)(C)C)c2cc(-c3ncccc3OC(F)F)c(F)cc12` (centres unmarked) [Compound 61, N-(1-(6-(3-(difluoromethoxy)pyridin-2-yl)-5-fluoro-1-neopentyl-1H-indol-3-yl)ethyl)cyclopropanesulfonamide]: the EC50 is under 100 nM.

Turning to `CC(NS(=O)(=O)C1CC1)c1cn(CC(C)(C)C)c2cc(-c3ncc(F)cc3Cl)c(F)cc12` (centres unmarked) [Compound 62, N-(1-(6-(3-chloro-5-fluoropyridin-2-yl)-5-fluoro-1-neopentyl-1H-indol-3-yl)ethyl)cyclopropanesulfonamide], the EC50 is under 100 nM.

`CC(NS(=O)(=O)C1CC1)c1cn(CC(C)(C)C)c2cc(-c3ncc(F)cc3C#N)c(F)cc12` (centres unmarked) [Compound 63, N-(1-(6-(3-cyano-5-fluoropyridin-2-yl)-5-fluoro-1-neopentyl-1H-indol-3-yl)ethyl)cyclopropanesulfonamide]: the concentration for a half-maximal effect (EC50) was under 100 nM.

Take `CC(NS(=O)(=O)C1CC1)c1cn(CC(C)(C)C)c2cc(-c3ccc(F)cn3)c(F)cc12` (centres unmarked) [Compound 64, N-(1-(5-fluoro-6-(5-fluoropyridin-2-yl)-1-neopentyl-1H-indol-3-yl)ethyl)cyclopropanesulfonamide]: the concentration for a half-maximal effect (EC50) fell in the range of 100 to 1000 nM.

Regarding `CC(NS(=O)(=O)C1CC1)c1cn(CC(C)(C)C)c2cc(-c3cccnc3C(F)F)c(F)cc12` (centres unmarked) [Compound 65, N-(1-(6-(2-(difluoromethyl)pyridin-3-yl)-5-fluoro-1-neopentyl-1H-indol-3-yl)ethyl)cyclopropanesulfonamide], the concentration for a half-maximal effect (EC50) was under 100 nM.

In the case of `Cc1ncc(F)cc1-c1cc2c(cc1F)c(C(C)NS(=O)(=O)C1CC1)cn2CC(C)(C)C` (centres unmarked) [Compound 66, N-(1-(5-fluoro-6-(5-fluoro-2-methylpyridin-3-yl)-1-neopentyl-1H-indol-3-yl)ethyl)cyclopropanesulfonamide], the EC50 is under 100 nM.

Take `CC(NS(=O)(=O)C1CC1)c1cn(CC(C)(C)C)c2cc(-c3cc(F)cnc3C#N)c(F)cc12` (centres unmarked) [Compound 67, N-(1-(6-(2-cyano-5-fluoropyridin-3-yl)-5-fluoro-1-neopentyl-1H-indol-3-yl)ethyl)cyclopropanesulfonamide]: the EC50 was under 100 nM.

Take `CC(NS(=O)(=O)C1CC1)c1cn(CC(C)(C)C)c2cc(-c3cncc(F)c3)c(F)cc12` (centres unmarked) [Compound 68, N-(1-(5-fluoro-6-(5-fluoropyridin-3-yl)-1-neopentyl-1H-indol-3-yl)ethyl)cyclopropanesulfonamide]: the EC50 is 100 to 1000 nM.

For `CC(NS(=O)(=O)C1CC1)c1cn(CC(C)(C)C)c2cc(-c3ccc(C#N)nc3)c(F)cc12` (centres unmarked) [Compound 69, N-(1-(6-(6-cyanopyridin-3-yl)-5-fluoro-1-neopentyl-1H-indol-3-yl)ethyl)cyclopropanesulfonamide], the half-maximal effective concentration (EC50) was 100 to 1000 nM.

For the compound `CC(NS(=O)(=O)C1CC1)c1cn(CC(C)(C)C)c2cc(-c3ccc(C(F)(F)F)nc3)c(F)cc12` (centres unmarked) [Compound 70, N-(1-(5-fluoro-1-neopentyl-6-(6-(trifluoromethyl)pyridin-3-yl)-1H-indol-3-yl)ethyl)cyclopropanesulfonamide], the EC50 fell in the range of 100 to 1000 nM.

Turning to `Cc1ccncc1-c1cc2c(cc1F)c(C(C)NS(=O)(=O)C1CC1)cn2CC(C)(C)C` (centres unmarked) [Compound 71, N-(1-(5-fluoro-6-(4-methylpyridin-3-yl)-1-neopentyl-1H-indol-3-yl)ethyl)cyclopropanesulfonamide], the 50% effective concentration (EC50) was under 100 nM.

Regarding `CC(NS(=O)(=O)C1CC1)c1cn(CC(C)(C)C)c2cc(-c3cnccc3F)c(F)cc12` (centres unmarked) [Compound 72, N-(1-(5-fluoro-6-(4-fluoropyridin-3-yl)-1-neopentyl-1H-indol-3-yl)ethyl)cyclopropanesulfonamide], the EC50 is 100 to 1000 nM.

For the compound `CC(NS(=O)(=O)C1CC1)c1cn(CC(C)(C)C)c2cc(-c3cnccc3Cl)c(F)cc12` (centres unmarked) [Compound 73, N-[1-[6-(4-chloro-3-pyridyl)-1-(2,2-dimethylpropyl)-5-fluoro-indol-3-yl]ethyl]cyclopropanesulfonamide], the EC50 is under 100 nM.

Turning to `CN(C)S(=O)(=O)N[C@@H](c1cn(CC(C)(C)C)c2cc(-c3ncc(F)cc3C(F)(F)F)ccc12)C(F)F` [Compound 74], the EC50 was under 100 nM.

As to `CN(C)S(=O)(=O)N[C@@H](c1cn(CC(C)(C)C)c2cc(-c3c(C#N)cccc3C(F)(F)F)ccc12)C(F)F` [Compound 75], the EC50 is under 100 nM.

For `CC(C)(C)Cn1cc([C@H](NS(=O)(=O)N2CC(F)C2)C(F)F)c2cc(F)c(-c3ccccc3C(F)(F)F)cc21` [Compound 76, (S)—N-(2,2-difluoro-1-(5-fluoro-1-neopentyl-6-(2-(trifluoromethyl)phenyl)-1H-indol-3-yl)ethyl)-3-fluoroazetidine-1-sulfonamide], the EC50 is under 100 nM.

As to `CC(C)(C)Cn1cc([C@H](NS(=O)(=O)C2CC2)C(F)F)c2ccc(-c3ncc(Cl)cc3F)cc21` [Compound 77, (S)—N-(1-(6-(5-chloro-3-fluoropyridin-2-yl)-1-neopentyl-1H-indol-3-yl)-2,2-difluoroethyl)cyclopropanesulfonamide], the EC50 was under 100 nM.

In the case of `CC(C)(C)Cn1cc([C@H](NS(=O)(=O)C2CC2)C(F)F)c2ccc(-c3ncc(F)cc3Cl)cc21` [Compound 78, (S)—N-(1-(6-(3-chloro-5-fluoropyridin-2-yl)-1-neopentyl-1H-indol-3-yl)-2,2-difluoroethyl)cyclopropanesulfonamide], the concentration for a half-maximal effect (EC50) was under 100 nM.

Take `CC(C)(C)Cn1cc([C@H](NS(=O)(=O)C2CC2)C(F)F)c2ccc(-c3cnccc3C(F)(F)F)cc21` [Compound 79, (S)—N-(2,2-difluoro-1-(1-neopentyl-6-(4-(trifluoromethyl)pyridin-3-yl)-1H-indol-3-yl)ethyl)cyclopropanesulfonamide]: the EC50 is under 100 nM.

`CC(C)(C)Cn1cc([C@H](NS(=O)(=O)C2CC2)C(F)F)c2ccc(-c3cncnc3C(F)(F)F)cc21` [Compound 80, (S)—N-(2,2-difluoro-1-(1-neopentyl-6-(4-(trifluoromethyl)pyrimidin-5-yl)-1H-indol-3-yl)ethyl)cyclopropanesulfonamide]: the EC50 is under 100 nM.

For `CC(C)(C)Cn1cc([C@H](NS(=O)(=O)C2CC2)C(F)F)c2ccc(-c3ccccc3C(F)F)cc21` [Compound 81, (S)—N-(1-(6-(2-(difluoromethyl)phenyl)-1-neopentyl-1H-indol-3-yl)-2,2-difluoroethyl)cyclopropanesulfonamide], the 50% effective concentration (EC50) is under 100 nM.
